Data: patent US20240360179A1, “STAPLED PEPTIDES AND METHODS THEREOF” (FOG PHARMACEUTICALS, INC., priority 2021, published 2024)
Read-outs that look alike come from different tables or passages of the source.

Tests used:
[1] = molecular target: T1, full-length B-Catenin (Uniprot ID P35222) (Homo sapiens, UniProt P35222); format: binding
T1 construct: 10 nM full-length B-Catenin (Uniprot ID P35222)
T1 sequence (P35222 1-781): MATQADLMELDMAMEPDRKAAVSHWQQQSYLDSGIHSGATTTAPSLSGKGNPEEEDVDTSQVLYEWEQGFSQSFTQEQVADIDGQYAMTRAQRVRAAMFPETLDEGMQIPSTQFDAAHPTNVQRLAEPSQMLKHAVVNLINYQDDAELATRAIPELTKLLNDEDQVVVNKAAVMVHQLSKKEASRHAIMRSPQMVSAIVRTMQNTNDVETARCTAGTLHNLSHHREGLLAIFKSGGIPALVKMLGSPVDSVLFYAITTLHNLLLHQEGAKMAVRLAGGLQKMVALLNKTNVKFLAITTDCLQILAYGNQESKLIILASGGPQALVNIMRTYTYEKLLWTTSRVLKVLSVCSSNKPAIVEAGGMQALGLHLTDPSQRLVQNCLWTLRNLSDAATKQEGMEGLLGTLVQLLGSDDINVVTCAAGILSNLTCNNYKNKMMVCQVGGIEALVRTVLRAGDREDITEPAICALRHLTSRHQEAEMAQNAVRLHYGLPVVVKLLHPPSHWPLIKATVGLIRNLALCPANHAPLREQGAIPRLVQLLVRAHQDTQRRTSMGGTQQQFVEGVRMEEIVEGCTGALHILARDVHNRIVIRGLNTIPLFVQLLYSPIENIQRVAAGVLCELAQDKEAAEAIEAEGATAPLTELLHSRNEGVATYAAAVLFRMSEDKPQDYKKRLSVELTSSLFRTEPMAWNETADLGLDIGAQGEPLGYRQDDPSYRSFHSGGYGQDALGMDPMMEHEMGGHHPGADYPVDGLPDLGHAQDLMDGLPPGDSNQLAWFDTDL

[2] = tested on: COLO320DM cells; assay: COLO320DM proliferation assay (CellTiter-Glo); format: cell-based, human; details: read-out: COLO320DM Proliferation Abs IC50
In short: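 COLO320DM cells, 250 cells/well in RPMI-1640 with 4% FBS, attached 18-22 h, then exposed 96 h at 37 °C, 5% CO2 to 7-point 1/2 dilutions from 20 uM to 313 nM. Viability by CellTiter-Glo luminescence; IC50 derived from the dose curve.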

[3] = competition fluorescence polarization, read-out: beta-Catenin FP IC50
[4] = read-out: beta-catenin TCF4 competition FP assay IC50

Substance	IC50 ([1]; read-out: beta-Catenin FP IC50) [nM]	IC50 [2] [nM]	other results
4pentenyl-MePro-Asp-B5-Ala-Asp-3COOHF-Ala-Ala-Phe-PyrS2-Lys*3-3Thi-BztA-Ala-GlnR*3-NH2 [I-932]			IC50 [1, 3]: > 1000 nM
4pentenyl-MePro-Asp-B5-Ala-Asp-3COOHF-Ala-Ala-Phe-PyrS2-Lys*3-3Thi-BztA-Ala-GlnR*3-NH2 [I-993]			IC50 [1, 3]: 750 to 1000 nM
4pentenyl-ThioPro-Asp-B5-Ala-Asp-3COOHF-Ala-Ala-Phe-PyrS2-Lys*3-3Thi-BztA-Ala-GlnR*3-NH2 [I-933]			IC50 [1, 3]: > 1000 nM
Ac-PL3-Asp-Cha-B5-Asp-3COOHF-Ala-Ala-Phe-Lys*3-PyrS2-2F3MeF-BztA-GlnR*3-Ala-NH2 [I-98]	< 50		
Ac-PL3-Asp-Leu-B5-Asp-3COOHF-Ala-Ala-Phe-GlnR*3-PyrS2-3Thi-BztA-Lys*3-NH2 [I-16]	< 50		
Ac-PL3-Asp-Leu-B5-Asp-3COOHF-Ala-Ala-Phe-Lys*3-PyrS2-3Thi-BztA-GlnR*3-NH2 [I-12]	< 50		
Ac-PL3-Asp-Leu-B5-Asp-3COOHF-Ala-Ala-Phe-dLys*3-PyrS2-3Thi-BztA-GlnR*3-NH2 [I-10]	< 50		
Ac-PL3-Asp-Npg-B5-Asp-3COOHF-Acp-Ala-Phe-Lys*3-PyrS2-3Thi-BztA-GlnR*3-Ala-NH2 [I-385]	< 50		
Ac-PL3-Asp-Npg-B5-Asp-3COOHF-Aib-Ala-Phe-Lys*3-PyrS2-3Thi-BztA-GlnR*3-Leu-Glu-Ala-NH2 [I-495]	< 50		
Ac-PL3-Asp-Npg-B5-Asp-3COOHF-Aib-Ala-Phe-Lys*3-PyrS2-3Thi-BztA-GlnR*3-Leu-Ser-Ala-NH2 [I-497]	< 50		
Ac-PL3-Asp-Npg-B5-Asp-3COOHF-Aib-Ala-Phe-Lys*3-PyrS2-3Thi-BztA-GlnR*3-Leu-Thr-Ala-NH2 [I-499]	< 50		
Ac-PL3-Asp-Npg-B5-Asp-3COOHF-Aib-Ala-Phe-Lys*3-PyrS2-3Thi-BztA-GlnR*3-Leu-aThr-Ala-NH2 [I-501]	< 50		
Ac-PL3-Asp-Npg-B5-Asp-3COOHF-Aib-Ala-Phe-Lys*3-PyrS2-3Thi-BztA-GlnR*3-Thr-Aib-NH2 [I-412]	< 50		
Ac-PL3-Asp-Npg-B5-Asp-3COOHF-Aib-Ala-Phe-Lys*3-PyrS2-3Thi-BztA-GlnR*3-Val-Aib-NH2 [I-408]	< 50		
Ac-PL3-Asp-Npg-B5-Asp-3COOHF-Aib-Ala-Phe-Lys*3-PyrS2-3Thi-BztA-GlnR*3-[mPEG4]Lys-NH2 [I-1181]		> 20000	
Ac-PL3-Asp-Npg-B5-Asp-3COOHF-Aib-Ala-Phe-Lys*3-PyrS2-3Thi-BztA-GlnR*3-[mPEG8]Lys-NH2 [I-1182]		> 20000	
Ac-PL3-Asp-Npg-B5-Asp-3COOHF-Aib-Ala-Phe-Lys*3-PyrS2-3Thi-BztA-GlnR*3-[mPEG16]Lys-NH2 [I-1183]		≤ 10000	
Ac-PL3-Asp-Npg-B5-Asp-3COOHF-Aib-Ala-Phe-Lys*3-PyrS2-3Thi-BztA-GlnR*3-dAla-Ser-NH2 [I-461]	< 50		
Ac-PL3-Asp-Npg-B5-Asp-3COOHF-Aib-Ala-Phe-Lys*3-PyrS2-3Thi-BztA-GlnR*3-dLeu-Ser-Leu-NH2 [I-468]	< 50		
Ac-PL3-Asp-Npg-B5-Asp-3COOHF-Aib-Ala-Phe-Lys*3-PyrS2-3Thi-BztA-GlnR*3-dPro-NH2 [I-720]		≤ 10000	
Ac-PL3-Asp-Npg-B5-Asp-3COOHF-Aib-Ala-Phe-Lys*3-PyrS2-3Thi-BztA-hGlnR*3-NH2 [I-786]		≤ 10000	
Ac-PL3-Asp-Npg-B5-Asp-3COOHF-Aib-Ala-Phe-Lys*3-PyrS2-Phe-2NapA-GlnR*3-Ala-NH2 [I-484]	< 50		
Ac-PL3-Asp-Npg-B5-Asp-3COOHF-Aib-Ala-Phe-Lys*3-PyrS2-Phe-34ClF-GlnR*3-NH2 [I-871]		≤ 10000	
Ac-PL3-Asp-Npg-B5-Asp-3COOHF-Aib-Ala-Phe-Lys*3-PyrS2-Phe-34ClF-GlnR*3-Pro-NH2 [I-872]		≤ 10000	
Ac-PL3-Asp-Npg-B5-Asp-3COOHF-Aib-Ala-Phe-Lys*3-PyrS2-Phe-34MeF-GlnR*3-NH2 [I-1103]		≤ 10000	

Substance	IC50 ([1]; read-out: beta-Catenin FP IC50) [nM]	IC50 [2] [nM]	other results
Ac-PL3-Asp-Npg-B5-Asp-3COOHF-Aib-Ala-Phe-Lys*3-PyrS2-Phe-BztA-GlnR*3-Ala-NH2 [I-280]	< 50		
Ac-PL3-Asp-Npg-B5-Asp-3COOHF-Aib-Ala-Phe-Lys*3-PyrS2-[2PyAc]2NH2F-BztA-GlnR*3-Ala-NH2 [I-1740]		≤ 10000	
Ac-PL3-Asp-Npg-B5-Asp-3COOHF-Aib-Ala-Phe-Lys*3-PyrS2-[2PyzCO]2NH2F-BztA-GlnR*3-Ala-NH2 [I-1755]		> 20000	
Ac-PL3-Asp-Npg-B5-Asp-3COOHF-Aib-Ala-Phe-Lys*3-PyrS2-[3PyPrpc]2NH2F-BztA-GlnR*3-Ala-NH2 [I-1742]		10000 to 20000	
Ac-PL3-Asp-Npg-B5-Asp-3COOHF-Aib-Ala-Phe-Lys*3-PyrS2-[4PyPrpc]2NH2F-BztA-GlnR*3-Ala-NH2 [I-1743]		10000 to 20000	
Ac-PL3-Asp-Npg-B5-Asp-3COOHF-Aib-Ala-Phe-Lys*3-PyrS2-[15PyraPy]2NH2F-BztA-GlnR*3-Ala-NH2 [I-1752]		≤ 10000	
Ac-PL3-Asp-Npg-B5-Asp-3COOHF-Aib-Ala-Phe-Lys*3-PyrS2-[MorphAc]2NH2F-BztA-GlnR*3-Ala-NH2 [I-1753]		> 20000	
Ac-PL3-Asp-Npg-B5-Asp-3COOHF-Aib-Ala-Phe-Lys*3-PyrS2-[Nic]2NH2F-BztA-GlnR*3-Ala-NH2 [I-1754]		> 20000	
Ac-PL3-Asp-Npg-B5-Asp-3COOHF-Aib-Ala-Phe-Lys*3-PyrS2-hCbA-BztA-GlnR*3-Val-Glu-Ala-NH2 [I-1345]		≤ 10000	
Ac-PL3-Asp-Npg-B5-Asp-3COOHF-Aib-Ala-Phe-Lys*3-PyrS2-hCha-34ClF-GlnR*3-Val-Glu-Ala-NH2 [I-1350]		≤ 10000	
Ac-PL3-Asp-Npg-B5-Asp-3COOHF-Aib-Ala-Phe-Lys*3-PyrS2-hCha-BztA-GlnR*3-Val-Glu-Ala-NH2 [I-1347]		> 20000	
Ac-PL3-Asp-Npg-B5-Asp-3COOHF-Aib-Ala-Phe-Lys*3-PyrS2-hCypA-34ClF-GlnR*3-Val-Glu-Ala-NH2 [I-1349]		≤ 10000	
Ac-PL3-Asp-Npg-B5-Asp-3COOHF-Aib-Ala-Phe-Lys*3-PyrS2-hCypA-BztA-GlnR*3-Val-Glu-Ala-NH2 [I-1346]		≤ 10000	
Ac-PL3-Asp-Npg-B5-Asp-3COOHF-Aib-Ala-Phe-Lys*3-PyrS2-nLeu-BztA-GlnR*3-Ala-NH2 [I-272]	< 50		
Ac-PL3-Asp-Npg-B5-Asp-3COOHF-Aib-Ala-Phe-TriAzLys*3-PyrS2-Phe-BztA-sAbu*3-Ala-NH2 [I-420]	< 50		
Ac-PL3-Asp-Npg-B5-Asp-3COOHF-Aib-Ala-Phe-[oXyl]Cys-PyrS2-2F3MeF-BztA-Cys-Ala-NH2 [I-376]			IC50 [1, 4]: 220 nM
Ac-PL3-Asp-Npg-B5-Asp-3COOHF-Aib-Ala-Phe-[pXyl]Cys-PyrS2-2F3MeF-BztA-Cys-Ala-NH2 [I-377]			IC50 [1, 4]: 93 nM
Ac-PL3-Asp-Npg-B5-Asp-3COOHF-Aib-Ala-Phe-dDab*3-PyrS2-3Thi-BztA-GlnR*3-Ala-Ala-Ala-Ala-Ala-NH2 [I-790]		≤ 10000	
Ac-PL3-Asp-Npg-B5-Asp-3COOHF-Aib-Ala-nLeu-Lys*3-PyrS2-Phe-34ClF-GlnR*3-Ala-NH2 [I-480]	< 50		
Ac-PL3-Asp-Npg-B5-Asp-3COOHF-Cha-Ala-Phe-Lys*3-PyrS2-2F3MeF-BztA-GlnR*3-Ala-NH2 [I-102]	< 50		
Ac-PL3-Asp-Npg-B5-Asp-3COOHF-CyLeu-Ala-Phe-Lys*3-PyrS2-3Thi-BztA-GlnR*3-Ala-NH2 [I-383]	< 50		
Ac-PL3-Asp-Npg-B5-Asp-3COOHF-DaMeS-Ala-Phe-Lys*3-PyrS2-3Thi-BztA-GlnR*3-Ala-NH2 [I-437]	< 50		
Ac-PL3-Asp-Npg-B5-Asp-3COOHF-aMeDF-Ala-Phe-Lys*3-PyrS2-3Thi-BztA-GlnR*3-Ala-NH2 [I-457]	< 50		
Me2NAc-PL3-Asp-Npg-B5-Asp-3COOHF-Aib-Ala-Phe-Lys*3-PyrS2-3Thi-BztA-GlnR*3-Ala-NH2 [I-1078]		> 20000	
